Results reported in PubChem BioAssay (NCI).
Where “and” joins values, the source holds several entries; their conditions need not be identical. Equal values may be shown once.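 Method: 48-hour compound exposure of cells in 96-well plates, five concentrations, linear interpolation of endpoints. At the GI50, growth is halved. The concentration for full growth arrest is given as TGI.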

Experiments:
Assay in all cases: growth of human tumour cells (NCI), 48 h
[1] = system: SF-539 CNS
[2] = system: RXF 393 renal
[3] = system: SW-620 colon
[4] = system: HOP-62 NSCLC
[5] = system: BT-549 breast
[6] = system: OVCAR-8 ovarian
[7] = system: CCRF-CEM leukemia
[8] = system: HL-60(TB) leukemia
[9] = system: SN12C renal
[10] = system: RPMI-8226 leukemia

`COC(=O)[C@@H]1[C@H]2CC[C@]3(C)[C@@H](OC(C)=O)CC[C@H]3[C@@H]2CC[C@H]1C1(C)SCCS1` showed a TGI [1] of over 100 µM, a TGI [2] of 40.6 µM and a TGI [3] of over 100 µM. It also gave a TGI [4] of 53.6 µM, a TGI [5] of 46.2 µM and a TGI [6] of 70.6 µM. For the same compound, the TGI [7] was 86.4 µM, the TGI [8] was 36.8 µM and the TGI [9] was 37 µM. For the same compound, the TGI [10] was 43.4 µM.

`O=C1c2cccnc2C(=O)c2c1nc1ccccc1c2-c1ccc2c3c(nc4ccccc42)C(=O)c2cccnc2-c13` showed a TGI [1] of 7.49 µM, a TGI [2] of 9.68 µM and a TGI [3] of 4.79 µM. The TGI [4] was 22.9 µM, the TGI [5] was 12.7 µM and the TGI [6] was 2.59 µM. It also gave a TGI [7] of 15.5 µM, a TGI [8] of 5.42 µM and a TGI [9] of 4.06 µM. It also gave a TGI [10] of 7.14 µM.

In the case of `O=C(CCl)Nc1ccc(C(=O)N/N=C/c2ccc(Cl)cc2)cc1`, the GI50 [1] is reported as 1.75 µM, the TGI [1] is reported as 3.29 µM and 4.35 µM and the GI50 [2] is reported as 2.09 µM. For the same compound, the TGI [2] was 2.39 µM and 6.52 µM, the GI50 [3] was 3.35 µM and the TGI [3] was 6.81 µM and 7.06 µM. The GI50 [4] was 1.74 µM, the TGI [4] was 3.45 µM and 14.7 µM and the TGI [5] was 3.53 µM and 4.11 µM. The TGI [6] was 5.29 µM and 6.97 µM, the GI50 [7] was 2.23 µM and the TGI [7] was 5.32 µM and 4.46 µM. The GI50 [8] was 1.19 µM, the TGI [8] was 6.51 µM and 3.77 µM and the TGI [9] was 9.71 µM and 7.07 µM. The GI50 [10] was 9.09 µM and the TGI [10] was 6.54 µM and 32.5 µM.

In the case of `C[C@@H](CCO)OC1OC(COC(=O)C(C)(C)C)C(OC(=O)C(C)(C)C)C(OC(=O)C(C)(C)C)C1OC(=O)C(C)(C)C` (some centres not stated), the TGI [1] is reported as over 100 µM, the TGI [2] is reported as 61 µM and the TGI [3] is reported as over 100 µM. For the same compound, the TGI [4] was over 100 µM, the TGI [5] was over 100 µM and the TGI [6] was over 100 µM. For the same compound, the TGI [7] was over 100 µM, the TGI [8] was 62.5 µM and the TGI [9] was over 100 µM. It also gave a TGI [10] of 81.8 µM.

`Brc1ccc(/C(N=N/C(=N\Sc2ccccc2)c2ccc(Br)cc2)=N/Sc2ccccc2)cc1` gave a TGI [1] of over 100 µM, a TGI [2] of over 100 µM and a TGI [3] of over 100 µM. It also gave a TGI [4] of over 100 µM, a TGI [5] of over 100 µM and a TGI [6] of over 100 µM. For the same compound, the TGI [7] was over 100 µM, the TGI [8] was over 100 µM and the TGI [9] was over 100 µM. For the same compound, the TGI [10] was over 100 µM.

`O=c1n(CCCN2CCOCC2)nc2n1-c1ccc3ccccc3c1SC2` was tested, and the TGI [1] was over 100 µM, the TGI [2] was over 100 µM and the TGI [3] was over 100 µM. It also gave a TGI [4] of over 100 µM, a TGI [5] of over 100 µM and a TGI [6] of over 100 µM. The TGI [7] was over 100 µM, the TGI [8] was 97.8 µM and the TGI [9] was over 100 µM. It also gave a TGI [10] of 80.8 µM.
